Values belong to the molecule of their own block, whether it stands above or below them.
Columns and labels:
human CCR4 = target: T1, human CCR4 (Homo sapiens, UniProt P51679); experiment: Inhibition of MDC-induced transient Ca ion increase in CCR4/CHO cells; assay type: cell-based; details: human CCR4 stably overexpressing CHO cell; recombinant human MDC 10 nM; read-out: IC50 value, inhibition of Ca2+ transient increase by MDC
T1 construct: expressed in transfected cells; host or cells: CHO-dhfr(-)
T1 sequence (P51679 1-360): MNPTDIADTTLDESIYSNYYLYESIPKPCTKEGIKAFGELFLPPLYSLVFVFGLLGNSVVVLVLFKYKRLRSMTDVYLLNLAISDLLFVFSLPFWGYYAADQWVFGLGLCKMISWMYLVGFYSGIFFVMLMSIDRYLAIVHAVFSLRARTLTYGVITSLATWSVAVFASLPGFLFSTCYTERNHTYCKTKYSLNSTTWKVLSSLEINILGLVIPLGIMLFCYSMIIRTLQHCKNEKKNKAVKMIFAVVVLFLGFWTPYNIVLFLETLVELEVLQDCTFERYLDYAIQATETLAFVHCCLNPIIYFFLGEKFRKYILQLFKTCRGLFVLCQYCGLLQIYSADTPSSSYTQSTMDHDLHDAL
Procedure: 1-1: Isolation of Human CCR4 Gene
Human bone marrow cell cDNA was prepared using Marathon cDNA amplification kit (manufactured by Clontech). PCR primers hCCR4XbaI-F1 (SEQ ID NO:1) and hCCR4XbaI-R1 (SEQ ID NO:2) were designed based on the sequence of GenBankX85740.
Using the human bone marrow cell cDNA as the template and using Ex Taq (manufactured by Takara), a PCR reaction (2 minutes at 95° C.→[30 seconds at 95° C., 45 seconds at 60° C., 1 minute at 72° C.]×35 times) was carried out. The thus amplified PCR product was subjected to 1% agarose gel electrophoresis, purified using QIAquick Gel Extraction Kit (manufactured by QUIAGEN) and then digested with a restriction enzyme Xbal. […]
The thus established human CCR4 stably overexpressing CHO cell (CCR4/CHO cell) was suspended in Ham's F-12 medium and FBS (10%) and dispensed into a 96-well plate at 3.0×10^4 cells/well. […] Transient increase in the intracellular Ca^2+ concentration induced by the human MDC was measured using a Ca^2+ detector for 96-well (manufactured by Hamamatsu Photonics), and inhibition ratio (%) of the test compound was calculated by the following equation: Inhibition ratio=[(Ec−Ea)/Ec]×100 • Ec: measured value of Ca^2+ transient increase by MDC; and • Ea: measured value of Ca^2+ transient increase by MDC when a test compound was added […]

TNFα = experiment: Mouse TNFα production model by LPS stimulation; assay type: in vivo; details: mouse C57BL/6, oral, dose of 100 mg/kg, LPS 60 mg/kg i.p.
Procedure: 5-1: Mouse TNFα Production Model by LPS Stimulation
The present compound suspended in a medium, was orally applied to a mouse (male, C57BL/6), and after 0.5 hour, lipipolysaccharide (LPS, 055:B5, Sigma) was peritoneally administered to the mouse at a dose of 60 mg/kg. To the control groups was orally applied only the medium. Sixty minutes after LPS treatment, heparin-added blood collection was conducted from the abdominal vena cava under ether anesthesia, and centrifuged (12,000 r.p.m.) at 4° C. for 3 minutes, to give the plasma. The thus obtained plasma sample was stored at −80° C. before use. TNFα in the plasma was quantified using an ELISA kit (R&D systems).

[1] = system: leukocyte infiltration into the lung; experiment: Mouse OVA-induced asthma model; assay type: in vivo; details: mouse C57BL/6, oral, dose of 30 mg/kg
Procedure: 3-1: Mouse OVA-Induced Asthma Model Ovalbumin (OVA, 0.2 mg/mL) and Alum (8 mg/mL) prepared in physiological saline were intraperitoneally administered (500 μL) to the mouse (male, C57BL/6) on Day 1 (test starting day) and Day 8 (1 week thereafter), to sensitize the mouse. On Days 15 to 21, the mouse was taken to an inhalation chamber (W: 240 mm×L: 240 mm×H: 120 mm), and a 2% OVA solution was sprayed with an ultrasonic wave type nebulizer (NE-U12, manufactured by Omron) for 20 minutes, to thus conduct induction. The compound of the present invention suspended in a medium, was administered orally at 30 minutes before OVA sensitization on Day 8 and at 30 minutes before OVA induction on Days 15 to 21. To the control group was administered only the medium. Three hours after OVA inhalation on Day 21, the mouse was exsanguinated, the catheter tube was inserted into the trachea, and the lung was washed with heparin-containing physiological saline (10 U/ml), to give a bronchoalveolar lavage fluid (BALF). Leukocyte number in BALF was counted using hemocyte counter (SF-3000, manufactured by Sysmex).

auricle swelling [2] = experiment: Mouse dermatitis model to which hapten is continuously applied (TNCB); assay type: in vivo; details: mouse Balb/c, repeated TNCB, applied to ear at a concentration of 5%
Procedure: 4-2: Mouse Dermatitis Model to which Hapten is Applied
To the auricle (both sides of the right ear) of the mouse (male, Balb/c), 1% (w/v) TNCB solution (acetone:olive oil=4:1) (20 μL) was applied to conduct first sensitization. Seven days after sensitization, 1% (w/v) TNCB (acetone:olive oil=4:1) (20 μL) was applied to the mouse auricle, to conduct induction (Day 0). Furthermore, on Days 2, 4, 6, 8, 10, 12, 14 and 16, the same procedure as on Day 0 was repeated. The compound of the present invention was dissolved in a medium, applied to both sides of the right ear (20 μL) 2 hours before applying TNCB. To the control groups, was applied only the medium. Right after the administration of the compound and 24 hours after TNCB application, the thickness of the mouse auricle was measured with Dialthickness gauge (manufactured by Ozaki Seisakusho), which was used as indicator for efficacy in mouse dermatitis model to which hapten was continuously applied.

CCRF-CEM cell = experiment: Inhibition of MDC-induced T cell strain (CCRF-CEM cell) migration; assay type: cell-based; details: 4 hours
Procedure: Biological Example 2: Activity on cell migration stimulated by MDC 2-1: Inhibition tests on MDC-induced T cell strain (CCRF-CEM cell) migration A medium (0.3 mL) containing or free of MDC (20 nM, manufactured by PeproTech) was added to the lower chamber of 24-transwell plate, and further a medium (0.3 mL) containing a test compound solution of 2-fold concentration (containing 0.02% dimethylsulfoxide (DMSO)) or a medium (0.3 mL) containing DMSO only was added thereto. To the upper chamber, CCRF-CEM cell suspension prepared in 1×10^6 cells/50 μl and the test compound solution of 2-fold concentration (0.05 m]L) were added. The test was initiated by superimpose the upper chamber on the lower chamber. The chambers were incubated in a carbon gas incubator (5% CO2, 95% humidity) kept at 37° C. for 4 hours, and the cells remaining in the upper chamber were sucked up and removed. Then, 0.1 ml of a buffer (phosphate-buffered saline (PBS) containing ethylenediamine tetra-acetate sodium (EDTA) (20 μM) was added thereto, and subjected- to reaction at 4° C. for 30 minutes. The transwell plate was centrifuged (1000 r.p.m.) for 5 minutes, and the incubation liquid (600 μL) in the lower chamber was collected, and the cell number was counted using Flow Cytometer (manufactured by Becton-Dickinson). […]

auricle swelling [3] = experiment: Mouse DTH model (TNCB); assay type: in vivo; details: mouse Balb/c, applied to ear at a concentration of 5%, 24 hours after TNCB
Procedure: The mouse (male, Balb/c) was shaved on the abdomen with hair clippers, and to the abdomen was applied ethanol solution (100 μL) of 7% (w/v) 2,4,6-trinitrochlrobenzene (TNCB), to sensitize the mouse. Seven days after sensitization, a 1% (w/v) TNCB solution in olive oil (20 μL) was applied to the auricle of the mouse (both sides of the right ear), to conduct induction. The present compound dissolved in a medium, was applied to both sides of the right ear (20 μL) 2 hours before applying TNCB. To the control groups, was applied only the medium. Right after the administration of the compound and 24 hours after TNCB application, the thickness of the mouse auricle was measured with Dialthickness gauge (manufactured by Ozaki Seisakusho), which was used as indicator for efficacy in mouse DTH model.

IC50 (human CCR4): 130 nM
Structure (SMILES): Cc1ccc(S(=O)(=O)Nc2ncc(Br)nc2OCc2cccnc2)cc1 [Example 1(1), 6-bromo-2-((pyridin-3-yl)methyloxy)-3-(4-methylphenylsulfonylamino)pyrazine]
TNFα production by LPS stimulation (plasma TNFα) (TNFα): suppressed TNFα production by LPS stimulation

IC50 (human CCR4): 16 nM
Structure (SMILES): COc1ccc(COc2nc(Br)cnc2NS(=O)(=O)c2ccc(C)cc2)cc1OC [Example 1(2), 6-bromo-2-((3,4-dimethoxyphenyl)methyloxy)-3-(4-methylphenylsulfonylamino)pyrazine]

Structure (SMILES): COc1ccc(COc2nc(Br)cnc2NS(=O)(=O)c2ccc(C)cc2)cc1OCCN(C)C [Example 1(3), 6-bromo-2-((3-(2-dimethylaminoethyloxy)-4-methoxyphenyl)methyloxy)-3-(4-methylphenylsulfonylamino)pyrazine]
leukocyte infiltration into the lung (leukocyte number in BALF) [1]: suppressed leukocyte infiltration into the lung
auricle swelling (auricle swelling [2]): suppressed the auricle swelling

IC50 (CCRF-CEM cell): 10 nM
Structure (SMILES): COc1ccc(COc2nc(C)cnc2NS(=O)(=O)c2ccc(C)cc2)cc1OCCN(C)C [Example 6(1), 6-methyl-2-((3-(2-dimethylaminoethyloxy)-4-methoxyphenyl)methyloky)-3-(4-methylphenylsulfonylamino)pyrazine]
auricle swelling (auricle swelling [3]): suppressed the auricle swelling
